Key:
human SGLT2 = target: T1, human SGLT2 (Homo sapiens, UniProt P31639); assay: Assay for inhibitory effects on human SGLT2 activity (uptake of methyl-α-D-glucopyranoside in CS2-5E cells); format: cell-based; settings: inhibition of 14C α-MG uptake, CHO-K1 derived CS2-5E cells stably expressing human SGLT2, 1 mM α-MG, 37° C., 1 hour
T1 construct: expressed in transfected cells
T1 sequence (P31639 1-672): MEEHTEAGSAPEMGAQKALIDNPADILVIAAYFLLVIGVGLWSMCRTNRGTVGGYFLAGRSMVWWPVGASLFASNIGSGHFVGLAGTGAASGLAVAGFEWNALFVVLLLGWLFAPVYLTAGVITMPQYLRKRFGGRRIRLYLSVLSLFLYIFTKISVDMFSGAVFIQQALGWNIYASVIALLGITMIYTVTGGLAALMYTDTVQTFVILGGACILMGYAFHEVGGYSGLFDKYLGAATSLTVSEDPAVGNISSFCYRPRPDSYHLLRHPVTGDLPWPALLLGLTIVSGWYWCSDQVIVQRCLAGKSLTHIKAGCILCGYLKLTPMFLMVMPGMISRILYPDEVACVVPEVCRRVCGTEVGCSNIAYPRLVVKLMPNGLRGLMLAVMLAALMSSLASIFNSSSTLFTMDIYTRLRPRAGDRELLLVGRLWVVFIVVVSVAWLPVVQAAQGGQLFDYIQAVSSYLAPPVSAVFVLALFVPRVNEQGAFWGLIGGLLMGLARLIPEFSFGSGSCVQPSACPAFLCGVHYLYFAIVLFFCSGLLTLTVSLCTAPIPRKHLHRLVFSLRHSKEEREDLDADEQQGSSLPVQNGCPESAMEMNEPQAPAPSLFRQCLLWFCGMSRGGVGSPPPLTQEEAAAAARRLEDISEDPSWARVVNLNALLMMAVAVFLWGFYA
Experimental: Assay for Inhibitory Effects on Human SGLT2 Activity
1) Cloning and Construction of the Vector Expressing Human SGLT2
(§1) The cDNA library was prepared for PCR amplification by reverse transcription from total RNA deprived from human kidney (Ori gene) using oligo-dT as a primer. Using this cDNA library as a template, the DNA fragment coding 2 to 2039 bp of human SGLT2 (ACCESSION: M95549, M95299), which was reported by R. G. Wells et al., was amplified by PCR method and inserted into the multi-cloning site of pcDNA3.1(−) (Invitrogen). The DNA sequence inserted was perfectly matched to the previously reported sequence.
2) Establishment of Cell Line Stably Expressing Human SGLT2
(§2) The expression vector of human SGLT2 was digested by Sca I into a linear DNA. The linear DNA was transfected into CHO-K1 cells by means of lipofection (Effectene Transfection Reagent: QIAGEN). Neomycin resistant cell lines were selected by culture in the medium containing G418 (1 mg/mL, LIFE TECHNOLOGIES), and then the activity against the uptake of methyl-α-D-glucopyranoside was measured by the method described below. […] CS2-5E cells were cultured in the presence of G418 at 200 μg/mL. […]
CS2-5E cells were seeded into a 96-well culture plate at a density of 3×10^4 cells/well and cultured for 2 days, and were used in the uptake assay. […] Radioactivity was measured by means of micro-scintillation counter TopCount (Packard). […]

human SGLT1 = target: T2, human SGLT1 (Homo sapiens, UniProt P13866); assay: Assay for inhibitory effects on human SGLT1 activity (uptake of methyl-α-D-glucopyranoside in CS1-5-11D cells); format: cell-based; settings: inhibition of 14C α-MG uptake, CHO-K1 derived CS1-5-11D cells stably expressing human SGLT1, 1 mM α-MG, 37° C., 1 hour
T2 construct: expressed in transfected cells
T2 sequence (P13866 1-664): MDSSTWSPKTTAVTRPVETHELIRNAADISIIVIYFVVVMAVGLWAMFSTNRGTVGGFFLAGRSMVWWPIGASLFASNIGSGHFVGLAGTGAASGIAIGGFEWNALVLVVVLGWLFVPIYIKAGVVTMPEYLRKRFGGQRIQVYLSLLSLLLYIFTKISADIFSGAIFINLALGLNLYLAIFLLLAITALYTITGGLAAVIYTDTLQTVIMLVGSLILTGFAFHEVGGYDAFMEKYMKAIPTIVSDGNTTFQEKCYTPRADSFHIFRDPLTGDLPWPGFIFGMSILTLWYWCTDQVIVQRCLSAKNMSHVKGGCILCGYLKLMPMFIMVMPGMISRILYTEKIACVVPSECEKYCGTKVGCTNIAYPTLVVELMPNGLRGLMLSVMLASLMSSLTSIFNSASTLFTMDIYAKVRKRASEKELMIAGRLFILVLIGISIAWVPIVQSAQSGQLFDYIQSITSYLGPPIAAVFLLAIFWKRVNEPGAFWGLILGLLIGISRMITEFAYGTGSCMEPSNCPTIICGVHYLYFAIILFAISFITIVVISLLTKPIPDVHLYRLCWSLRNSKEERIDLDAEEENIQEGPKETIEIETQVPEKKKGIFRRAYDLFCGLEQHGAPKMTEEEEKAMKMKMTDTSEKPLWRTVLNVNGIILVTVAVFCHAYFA
Experimental: Assay for Inhibitory Effects on Human SGLT1 Activity
1) Cloning and Construction of the Vector Expressing Human SGLT1
as §1, with “small intestine” for “kidney”, “1” for “2”, “2005” for “2039”, “SGLT1” for “SGLT2”, “M24847),” for “M95549, M95299),”, “Hediger” for “R. G. Wells”
2) Establishment of Cell Line Stably Expressing Human SGLT1
as §2, with “SGLT1” for “SGLT2”, “CS1-5-11D” for “CS2-5E”
CS1-5-11D cells were seeded into a 96-well culture plate at a density of 3×10^4 cells/well and cultured for 2 days, and were used in the uptake assay. […] Radioactivity was measured by means of micro-scintillation counter TopCount (Packard). […]

diabetic rats = assay: Assay for inhibitory effects on blood glucose level increase in rats (liquid meal tolerance test); format: in vivo, Wistar rats; settings: liquid meal load, mean±S.E.; for Plasma glucose concentration 0.5 h: 0.5 hour after administration; for Plasma glucose concentration 1 h: 1 hour after administration; for Plasma glucose concentration 0 h: pretreatment (0 h)
Experimental: Assay for Inhibitory Effects on Blood Glucose Level Increase in Rats
1) Preparation of Diabetic Rat Model
Male Wistar rats (Japan Charles River), aged 8 weeks old, were injected nicotinamide (230 mg/kg) intraperitoneally. Fifteen minutes after injection, they were injected streptozotocin (85 mg/kg) intravenously from tail vain under anesthesia with ether. After a week, rats were fasted overnight and then glucose tolerance test (2 g/kg) was done.
2) Liquid Meal Tolerance Test
After overnight fasted, the diabetic rats were orally administered a test compound (0.5, 2 mg/kg), which was dissolved in distilled water, in the drug-treating group, or distilled water alone in a control group. Immediately after the compound administration, 4.5 kcal/body of liquid meal (No. 038, Control diet, assorted with dextrin and maltose; Oriental Yeast Co., Ltd.) was loaded orally. The blood was collected from tail artery immediately before and after administration with the time course, and treated with heparin immediately. The blood was centrifuged, and the plasma was collected to quantify the plasma glucose concentration by glucose oxidase method. The values in the Table are presented as the mean±S.E.

SMILES: OC[C@H]1O[C@@H](Oc2n[nH]c3cccc(CCc4ccccc4)c23)[C@H](O)[C@@H](O)[C@@H]1O [Example 4, 3-(β-D-Glucopyranosyloxy)-4-(2-phenylethyl)-1H-indazole]
- IC50 (human SGLT2): 90 nM

SMILES: Cc1cc(CCc2cccc3[nH]nc(O[C@@H]4O[C@H](CO)[C@@H](O)[C@H](O)[C@H]4O)c23)ccc1O [Example 5, 3-(β-D-Glucopyranosyloxy)-4-[2-(4-hydroxy-3-methylphenyl)-ethyl]-1H-indazole]
- IC50 (human SGLT1): 12 nM

SMILES: NC(=O)Cn1nc(O[C@@H]2O[C@H](CO)[C@@H](O)[C@H](O)[C@H]2O)c2c(CCc3ccc(O)cc3)ccnc21 [Example 12, 1-Carbamoylmethyl-3-(β-D-glucopyranosyloxy)-4-[2-(4-hydroxyphenyl)ethyl]-1H-pyrazolo[3,4-b]pyridine]
- IC50 (human SGLT1): 100 nM

SMILES: OCCn1nc(O[C@@H]2O[C@H](CO)[C@@H](O)[C@H](O)[C@H]2O)c2c(CCc3ccccc3)ccnc21 [Example 17, 3-(β-D-Glucopyranosyloxy)-1-(2-hydroxyethyl)-4-(2-phenylethyl)-1H-pyrazolo[3,4-b]pyridine]
- IC50 (human SGLT2): 68 nM

SMILES: OCCn1nc(O[C@@H]2O[C@H](CO)[C@@H](O)[C@H](O)[C@H]2O)c2c(CCc3ccc(O)cc3)cccc21 [Example 59, 3-(β-D-Glucopyranosyloxy)-1-(2-hydroxyethyl)-4-[2-(4-hydroxyphenyl)ethyl]-1H-indazole]
- Plasma glucose concentration 0.5 h (diabetic rats; 0.5 mg/kg orally): 173 ± 7 mg/dL
- Plasma glucose concentration 1 h (diabetic rats; 0.5 mg/kg orally): 186 ± 6 mg/dL
- Plasma glucose concentration 0 h (diabetic rats; 0.5 mg/kg orally): 109 ± 2 mg/dL
- Plasma glucose concentration 0.5 h (diabetic rats; 2 mg/kg orally): 141 ± 3 mg/dL
- Plasma glucose concentration 1 h (diabetic rats; 2 mg/kg orally): 153 ± 4 mg/dL
- Plasma glucose concentration 0 h (diabetic rats; 2 mg/kg orally): 115 ± 3 mg/dL
